Assay results: patent publication US8653080B2, “Methods for screening and compounds that protect against amyloid diseases” (Salk Institute for Biological Studies, priority 2009, dated 2014)

What was measured:
[1] = system: CL660 animals; assay: vGFP scoring in CL660 animals fed bacteria expressing RNAi (daf-16, hsf-1) plus compound; type: in vivo, C. elegans; conditions: for effect of DAF-16 knockdown on the beneficial effects (vGFP) of the compound: daf-16 RNAi, FIG. 19; for effect of HSF-1 knockdown on vGFP expression with the compound: hsf-1 RNAi, FIG. 20
Experimental: (§1) Animals were grown at 15° C. until adulthood. Gravid adults were suspended and bleached; eggs were resuspended in M9 salt solution and allowed to hatch for 24 hours at 15° C. Compounds were added to S-media at 100 μM concentration and then aliquoted to 48-well Costar plates at 400 μL per well. As a control, DMSO was added to S-media at 0.1% concentration. L1 hatched larvae were added to each well at 50-100 animals per 25 μL aliquot. Worms were thus grown in liquid media until reaching the third larval stage (L3) at 15° C. At L3 worms were shifted to 25° C. to begin biogenesis of Aβ protein. Observation began 24 hours later when the animals have reached adulthood (timepoint=0 hrs). Animals were scored as either with or without vGFP signal, regardless of intensity level.
In order to determine a pathway the compounds are acting upon, experiments were performed with genetics already known to be involved in the handling of Aβ aggregation. The insulin/IGF-1 pathway plays a role in the handling of cellular stress. DAF-2 is the sole insulin/IGF-1 receptor in C. elegans and depletion of DAF-2 results in long-lived, stress resistant worms. The Aβ protein applies a biochemical stress to cellular activity as shown by the hsp-16.2 activity in response to its presence. […] DAF-16 encodes a FOXO transcription factor and is required for the lifepan extension in worms fed daf-2RNAi. HSF-1 is also required for the lifespan extension seen in worms fed daf-2 RNAi.
CL660 animals were fed bacteria expressing RNAi suspended in S-basal solution.

[2] = system: CL660 animals; assay: vGFP signal scoring in transgenic C. elegans (CL660) expressing Aβ, liquid culture; type: in vivo; conditions: compounds at 100 μM in S-media; 36 hours into adulthood; FIG. 18; control DMSO 0.1%
Experimental: Identification of compounds that inhibit aggregation-mediated proteotoxicity was carried out using transgenic C. elegans strain, which expresses human Aβ1-42 within body wall muscles under the direction of the myo-3 promoter cause by induction at 25 C and inhibition of smg-1 activity. This induction in the absence of an effective inhibitor causes association of a heat shock protein-GFP fusion construct with the Aβ1-42 (a schematic of this model is shown in FIG. 2).
Twenty-four hours after placing the L1-stage worms into the fridge, the plates were removed for fileting. Fifteen to twenty-five worms each were placed into wells of a microtiter plate containing compounds to be tested in an aqueous environment or a corresponding control. Only worms that were moving normally were filleted. The worms were incubated for approximately 36 hours or until L3 stage was reached. Aβ toxicity was then generated by growing the worms at 25 C for 18 hours which effects smg-1 activity. […] Typically the worms settled to the bottom of the well and were counted manually.
as §1

Row | SMILES | effect of DAF-16 knockdown on the beneficial effects (vGFP) of the compound [1] | effect of HSF-1 knockdown on vGFP expression with the compound [1] | vGFP in CL660 animals compared to control [2]
1 | CCCCN1C(=O)[C@H](COCc2ccccc2)NC(=O)C1C(=O)NCc1ccccc1 (some centres unmarked) [D7] | partially suppressed the beneficial effects | no effect on vGFP expression | reduced vGFP
2 | O=C(NCc1ccccc1)C1C(=O)N[C@@H](COCc2ccccc2)C(=O)N1Cc1cccnc1 (some centres unmarked) [E7] |  |  | reduced vGFP
3 | CCC(CC)N1C(=O)[C@H](COCc2ccccc2)NC(=O)C1C(=O)NCc1ccccc1 (some centres unmarked) [F7] | partially suppressed the beneficial effects | no effect on vGFP expression | reduced vGFP
4 | O=C(NCc1ccccc1)C1C(=O)N[C@@H](COCc2ccccc2)C(=O)N1C1CCCC1 (some centres unmarked) [H7] |  |  | reduced vGFP
